{"source": "patent US4065575A", "about": "“3-Aminomethyl derivatives of 4-chromanone” (Joullie International, priority 1975, dated 1977)", "key": {"mice": {"system": "mice", "experiment": "Acute toxicity in mice (LD 50)", "type": "in vivo", "conditions": "intravenous; in words", "procedure": "(§1) The study is carried out on batches of 5 Swiss female mice of the NMRI Han. strain. The products are administered either intravenously (into the caudal vein) in solution in a 9 g..permill. sodium chloride solution, or orally (probang) in suspension in a 10% solution of gum arabic.\n(§2) The animals are observed for the 15 days following the administration of the products.\n(§3) The LD 50 values are calculated by the method of Karber and Behrens (Arch. Exp. Pathol. Pharm. 177, 1935, page 379)."}, "[1]": {"system": "isolated auricle of a rabbit", "experiment": "Peripheral vasomotoricity, isolated and perfused auricle of a rabbit", "conditions": "for activation at 0.0001 mg / activation at 0.001 mg / activation at 0.01 mg / activation at 0.1 mg: Oryctolagus cuniculus, read-out: Maximum variations in the flow rate; for activation at 0.0001 mg: dose 0.1 μg.; for activation at 0.001 mg: dose 1 μg.; for activation at 0.01 mg: dose 10 μg.; for activation at 0.1 mg: dose 100 μg.", "procedure": "The flow rate of the liquid issuing from the veins is recorded by electronic contact on a polygraph. The products to be studied are injected at increasing doses into the perfusion tube and their actions are compared to that of isoxsuprine used as the reference substance.\nThe results, collected in Table No. III, are expressed in the maximum percentage increase of the flow rate at the various doses used."}, "[2]": {"system": "hypertensive effects of electrical stimulation, adrenaline and noradrenaline", "experiment": "α-Sympatholytic effects in amyeliated rats", "type": "in vivo", "conditions": "for % variation of the hypertensive effects obtained with adrenaline: adrenaline 1.25 to 2.5 μg./kg.; for % variation of the hypertensive effects obtained with noradrenaline: noradrenaline 1.25 to 2.5 μg./kg.", "excerpt": "The α-sympatholytic effects of LJ 1052 and LJ 1053 are compared with those of isoxsuprine in amyeliated rats which have been prepared by a method derived from those of Shipley and Tilden (Proc. soc. Exp. Biol. Med. 1947, 64, 453-455) and of Gillespie and Muir (Br. J. Pharmac. Chemother. 1967, 30, 78-87).\nThe effects on the blood pressure of electrical stimulation of the thoracolumbar sympathic nerve (rectangular signals = voltage 20 to 40 volts; width 2 m. sec; frequency 10 secs.; duration 5 to 10 secs.) and of injections of adrenaline (1.25 to 2.5 μg./kg.) and of noradrenaline (1.25 to 2.5 μg./kg.) are determined before and after injection of the products tested."}, "[3]": {"experiment": "Cardiovascular action in dogs", "type": "in vivo, male Beagle dogs", "procedure": "Male Beagle dogs weighing 9 to 12 kg. were anaesthetised by intrasaphenous injection of a 2% solution of chloralose in physiological solution, at a dose of 100 mg./kg.\nThe anaesthesia is maintained by slow perfusion of 5% pentobarbital (1.2 ml./hour).\nThe animals are tracheotomised and placed under assisted respiration by means of a Bird respirator. Their oxygenation and their acid-base equilibrium are controlled by determination of the pH, the pCO2 and the pO2 on blood samples taken from a collateral of the brachial artery (pH/gas analyser for blood, IL model 213/227).\nThe different parameters are recorded on a polygraph."}, "[4]": {"experiment": "Acute toxicity in mice (LD 50)", "type": "in vivo", "conditions": "mouse, in vivo, mice, 15 days observation", "procedure": "as §1, §2, §3"}, "[5]": {"system": "isolated duodenum of a rat", "experiment": "Musculotropic spasmolytic action on the isolated duodenum of a rat (barium chloride contraction)", "conditions": "in words", "procedure": "The experiments are carried out in accordance with the method of Magnus R. (Arch. ges. Physiol. 1904, 102, 123) on the isolated duodenum of a rat, surviving in oxygenated Tyrode liquid and kept at 38° C. The tonus and the pendular movements of the duodenum were recorded by means of a strain gauge on an electronic polygraph.\nThe inherent action of the products, and the antagonism exerted against the musculotropic contraction-inducing action of barium chloride was examined. Papaverine is used as the reference substance."}, "[6]": {"conditions": "dose 50 g./kg. (so in the source)"}, "[7]": {"conditions": "dose 100 g./kg. (so in the source)"}, "[8]": {"conditions": "dose 500 g./kg. (so in the source)"}, "[9]": {"conditions": "0.04 mg./kg. i.v. (1/1,000 LD 50)"}, "[10]": {"conditions": "0.04 mg./kg. i.v. (1/1,000 LD 50), first or only phase"}, "[11]": {"conditions": "0.04 mg./kg. i.v. (1/1,000 LD 50), then"}}, "note": "Where a name gives a salt, the structure may show the parent alone.", "data": [{"compound": "CC(COc1ccccc1)NC(C)C(O)c1ccc(O)cc1", "note": "(centres unmarked) [Isoxsuprine, reference compound]", "values": [{"measurement": "intravenous LD 50 in mice (comparison of three products)", "setting": "mice", "result": "practically identical"}, {"measurement": "activation at 0.0001 mg", "setting": "[1]", "result": 38, "unit": "%"}, {"measurement": "activation at 0.001 mg", "setting": "[1]", "result": 61, "unit": "%"}, {"measurement": "activation at 0.01 mg", "setting": "[1]", "result": 117, "unit": "%"}, {"measurement": "activation at 0.1 mg", "setting": "[1]", "result": 175, "unit": "%"}, {"measurement": "% variation of the hypertensive effects obtained with electrical stimulation", "setting": "[2]; [6]", "result": -27, "unit": "%"}, {"measurement": "% variation of the hypertensive effects obtained with adrenaline", "setting": "[2]; [6]", "result": -69, "unit": "%"}, {"measurement": "% variation of the hypertensive effects obtained with noradrenaline", "setting": "[2]; [6]", "result": -36, "unit": "%"}, {"measurement": "% variation of the hypertensive effects obtained with electrical stimulation", "setting": "[2]; [7]", "result": -25, "unit": "%"}, {"measurement": "% variation of the hypertensive effects obtained with adrenaline", "setting": "[2]; [7]", "result": -75, "unit": "%"}, {"measurement": "% variation of the hypertensive effects obtained with noradrenaline", "setting": "[2]; [7]", "result": -44, "unit": "%"}, {"measurement": "% variation of the hypertensive effects obtained with electrical stimulation", "setting": "[2]; [8]", "result": -66, "unit": "%"}, {"measurement": "% variation of the hypertensive effects obtained with adrenaline", "setting": "[2]; [8]", "result": -100, "unit": "%"}, {"measurement": "% variation of the hypertensive effects obtained with noradrenaline", "setting": "[2]; [8]", "result": -67, "unit": "%"}, {"measurement": "Diastolic AP, duration of action", "setting": "[3]; [9]", "result": 20, "unit": "min"}, {"measurement": "Diastolic AP, maximum per cent variation", "setting": "[3]; [9]", "result": -62, "unit": "%"}, {"measurement": "FF (mean flow rate of the femoral artery), maximum per cent variation", "setting": "[3]; [9]", "result": "+63%"}, {"measurement": "FF, duration of action", "setting": "[3]; [9]", "result": 30, "unit": "min"}, {"measurement": "Hb (heart beat), maximum per cent variation", "setting": "[3]; [9]", "result": "+13%"}, {"measurement": "Hb, duration of action", "setting": "[3]; [9]", "result": 25, "unit": "min"}, {"measurement": "LVP, duration of action", "setting": "[3]; [9]", "result": 5, "unit": "min"}, {"measurement": "Mean AP, duration of action", "setting": "[3]; [9]", "result": 20, "unit": "min"}, {"measurement": "Mean AP, maximum per cent variation", "setting": "[3]; [9]", "result": -50, "unit": "%"}, {"measurement": "Systolic AP, duration of action", "setting": "[3]; [9]", "result": 10, "unit": "min"}, {"measurement": "Systolic AP, maximum per cent variation", "setting": "[3]; [9]", "result": "+13%"}, {"measurement": "LVP (left ventricular pressure), maximum per cent variation", "setting": "[3]; [10]", "result": -22, "unit": "%"}, {"measurement": "dLVP/dt, maximum per cent variation", "setting": "[3]; [10]", "result": -18, "unit": "%"}, {"measurement": "dLVP/dt, duration of action, second phase (\"then\")", "setting": "[3]; [11]", "result": 5, "unit": "min"}, {"measurement": "dLVP/dt, maximum per cent variation, second phase (\"then\")", "setting": "[3]; [11]", "result": "+12%"}]}, {"compound": "CCCCCNCC1COc2ccccc2C1=O", "note": "(centres unmarked) [LJ 1046, 3-(n-Pentylaminomethyl)-4-chromanone hydrochloride]", "values": [{"measurement": "LD50 at 360 h", "setting": "[4]; intravenous administration", "result": 18, "unit": "mg/kg"}, {"measurement": "LD50 at 360 h", "setting": "[4]; oral administration", "result": 237, "unit": "mg/kg"}, {"measurement": "musculotropic spasmolytic action compared with papaverine / within the series", "setting": "[5]", "result": "the most active"}, {"measurement": "activation at 0.0001 mg", "setting": "[1]", "result": 38, "unit": "%"}, {"measurement": "activation at 0.001 mg", "setting": "[1]", "result": 29, "unit": "%"}, {"measurement": "activation at 0.01 mg", "setting": "[1]", "result": 61, "unit": "%"}, {"measurement": "activation at 0.1 mg", "setting": "[1]", "result": 77, "unit": "%"}, {"measurement": "maximum increases in the flow rate", "setting": "[1]; all doses (0.1 to 100 μg.)", "result": "≤ 100", "unit": "%"}, {"measurement": "FF (mean flow rate of the femoral artery), maximum per cent variation", "setting": "[3]; 0.36 mg./kg. i.v. (1/50 LD 50)", "result": "+100%"}, {"measurement": "FF, duration of action", "setting": "[3]; 0.36 mg./kg. i.v. (1/50 LD 50)", "result": "> 20", "unit": "min"}, {"measurement": "Hb (heart beat), maximum per cent variation", "setting": "[3]; 0.36 mg./kg. i.v. (1/50 LD 50)", "result": "+30%"}, {"measurement": "Hb, duration of action", "setting": "[3]; 0.36 mg./kg. i.v. (1/50 LD 50)", "result": "> 20", "unit": "min"}, {"measurement": "LVP (left ventricular pressure), maximum per cent variation", "setting": "[3]; 0.36 mg./kg. i.v. (1/50 LD 50)", "result": -20, "unit": "%"}, {"measurement": "LVP, duration of action", "setting": "[3]; 0.36 mg./kg. i.v. (1/50 LD 50)", "result": "> 20", "unit": "min"}, {"measurement": "Mean AP, duration of action", "setting": "[3]; 0.36 mg./kg. i.v. (1/50 LD 50)", "result": "> 20", "unit": "min"}, {"measurement": "Mean AP, maximum per cent variation", "setting": "[3]; 0.36 mg./kg. i.v. (1/50 LD 50)", "result": -36, "unit": "%"}, {"measurement": "dLVP/dt, duration of action", "setting": "[3]; 0.36 mg./kg. i.v. (1/50 LD 50)", "result": "> 20", "unit": "min"}, {"measurement": "dLVP/dt, maximum per cent variation", "setting": "[3]; 0.36 mg./kg. i.v. (1/50 LD 50)", "result": "+43%"}]}, {"compound": "CCCNCC1COc2ccccc2C1=O", "note": "(centres unmarked) [LJ 1048, 3-(n-Propylaminomethyl)-4-chromanone hydrochloride]", "values": [{"measurement": "LD50 at 360 h", "setting": "[4]; intravenous administration", "result": 36, "unit": "mg/kg"}, {"measurement": "LD50 at 360 h", "setting": "[4]; oral administration", "result": 362, "unit": "mg/kg"}, {"measurement": "activation at 0.0001 mg", "setting": "[1]", "result": 22, "unit": "%"}, {"measurement": "activation at 0.001 mg", "setting": "[1]", "result": 33, "unit": "%"}, {"measurement": "activation at 0.01 mg", "setting": "[1]", "result": 33, "unit": "%"}, {"measurement": "activation at 0.1 mg", "setting": "[1]", "result": 29, "unit": "%"}, {"measurement": "peripheral vasodilatory action", "setting": "[1]; in words", "result": "low activity"}, {"measurement": "Hb (heart beat), maximum per cent variation", "setting": "[3]; 0.7 mg./kg. i.v. (1/50 LD 50)", "result": "+33%"}, {"measurement": "Hb, duration of action", "setting": "[3]; 0.7 mg./kg. i.v. (1/50 LD 50)", "result": "> 60", "unit": "min"}, {"measurement": "LVP (left ventricular pressure), maximum per cent variation", "setting": "[3]; 0.7 mg./kg. i.v. (1/50 LD 50)", "result": -21, "unit": "%"}, {"measurement": "LVP, duration of action", "setting": "[3]; 0.7 mg./kg. i.v. (1/50 LD 50)", "result": 30, "unit": "min"}, {"measurement": "Mean AP, duration of action", "setting": "[3]; 0.7 mg./kg. i.v. (1/50 LD 50)", "result": "> 60", "unit": "min"}, {"measurement": "Mean AP, maximum per cent variation", "setting": "[3]; 0.7 mg./kg. i.v. (1/50 LD 50)", "result": -38, "unit": "%"}, {"measurement": "dLVP/dt, duration of action", "setting": "[3]; 0.7 mg./kg. i.v. (1/50 LD 50)", "result": 60, "unit": "min"}, {"measurement": "dLVP/dt, maximum per cent variation", "setting": "[3]; 0.7 mg./kg. i.v. (1/50 LD 50)", "result": "+28%"}]}]}
